Measurements published in patent US8258162B2, “Catechol derivative, pharmaceutical composition containing the same, use of the catechol derivative, and use of the pharmaceutical composition” (Kissei Pharmaceutical Co., Ltd., priority 2008, dated 2012).

Legend:
[1] = system: rat cryopreserved hepatocytes; assay: Rat hepatocyte toxicities (cell viability, ATP activity); type: cell-based; conditions: concentration that shows 50% of the number of viable cells of control, 4 hours at 37° C.
[2] = system: Rat liver COMT; assay: Inhibition of rat liver COMT activity after oral administration; conditions: 10 mg/kg oral, percentage of Control sample (100%); for Liver (COMT activity %) 1 hour: 1 hour after administration; for Liver (COMT activity %) 5 hours: 5 hours after administration
[3] = system: Rat brain COMT; assay: Inhibition of rat brain COMT activity after oral administration; conditions: 10 mg/kg oral, percentage of Control sample (100%); for Brain (COMT activity %) 1 hour: 1 hour after administration; for Brain (COMT activity %) 5 hours: 5 hours after administration
[4] = molecular target: T1, recombinant human COMT (Homo sapiens, UniProt P21964); assay: Human COMT inhibitory potency; type: biochemical; conditions: catechol substrate, [3H]-S-adenosyl-L-methionine, 37° C. 30 minutes
T1 construct: GST (N, cleaved yes); made in house; host or cells: E. coli BL21 (DE3) Codon Plus RP, pGEX-2T vector
T1 sequence (P21964 with tags, fused parts or gaps): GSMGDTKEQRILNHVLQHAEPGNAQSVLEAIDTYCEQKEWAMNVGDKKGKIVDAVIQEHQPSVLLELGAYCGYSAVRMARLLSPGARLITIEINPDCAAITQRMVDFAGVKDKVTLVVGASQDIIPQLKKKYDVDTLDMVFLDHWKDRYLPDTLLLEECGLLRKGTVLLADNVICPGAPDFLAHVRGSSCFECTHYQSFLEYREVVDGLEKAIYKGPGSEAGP

[5] = system: unilateral 6-hydroxydopamine-lesioned hemi-parkinsonian rats; assay: Potentiation of the efficacy of L-dopa in unilateral 6-hydroxydopamine-lesioned hemi-parkinsonian rats (turning behavior); type: in vivo, rat; conditions: 10 mg/kg oral with 5 mg/kg L-dopa and 30 mg/kg carbidopa; for Duration: duration of contralateral rotation response; for Total counts: summed contralateral rotation counts during drug action

| Structure (SMILES) | IC50 [4] [nM] | EC50 [1] [nM] | also measured |
| --- | --- | --- | --- |
| CC(=O)c1ccc(C(=O)c2c(C(=O)OC(C)C)cc(O)c(O)c2[N+](=O)[O-])cc1 [Compound 1-7] | 4 | – | – |
| COC(=O)c1ccc(C(=O)c2c(C(=O)OC(C)C)cc(O)c(O)c2[N+](=O)[O-])cc1 [Compound 1-8] | 8.3 | – | – |
| CC(C)OC(=O)c1cc(O)c(O)c([N+](=O)[O-])c1C(=O)c1ccccc1C#N [Compound 1-9] | 7 | – | – |
| Cc1ccc(C(=O)c2c(C#N)cc(O)c(O)c2[N+](=O)[O-])cc1 [Compound 1-27] | 9.7 | > 300000 | – |
| N#Cc1cc(O)c(O)c([N+](=O)[O-])c1C(=O)c1ccccc1F [Compound 1-29, 2-(2-fluorobenzoyl)-4,5-dihydroxy-3-nitrobenzonitrile] | 6.8 | – | – |
| N#Cc1cc(O)c(O)c([N+](=O)[O-])c1C(=O)C1CCCCC1 [Compound 1-34] | 8.1 | > 300000 | Liver (COMT activity %) 1 hour [2]: 0.0%; Liver (COMT activity %) 5 hours [2]: 1.0%; Brain (COMT activity %) 1 hour [3]: 62.2%; Brain (COMT activity %) 5 hours [3]: 78.7% |
| N#Cc1cc(O)c(O)c([N+](=O)[O-])c1C(=O)c1ccno1 [Compound 1-37] | 8.6 | – | – |
| Cc1cc(C(=O)c2c(C#N)cc(O)c(O)c2[N+](=O)[O-])no1 [Compound 1-38] | 8.6 | > 300000 | – |
| N#Cc1cc(O)c(O)c([N+](=O)[O-])c1C(=O)N1CCCCC1 [Compound 1-43] | – | > 300000 | – |
| Cc1ccc(C(=O)c2cc(O)c(O)c([N+](=O)[O-])c2)cc1 [Tolcapone, 3,4-dihydroxy-4′-methyl-5-nitro-benzophenone, reference compound] | – | – | Liver (COMT activity %) 1 hour [2]: 2.5%; Liver (COMT activity %) 5 hours [2]: 30.0%; Duration [5]: 430.0 min; Total counts [5]: 2578.7 |
| O=C(c1ccccc1)c1ccc(O)c(O)c1[N+](=O)[O-] [compound 1, (3,4-dihydroxy-2-nitrophenyl)phenymethanone, reference compound] | 40.4 | – | – |
| O=C(c1ccccc1)c1cc(O)c(O)c([N+](=O)[O-])c1C(=O)c1ccccc1 [compound 2, (6-benzoyl-3,4-dihydroxy-2-nitrophenyl)phenylmethanone, reference compound] | 54 | – | – |
| CCOC(=O)Oc1cc(C(=O)c2ccccc2)c(C(=O)c2ccccc2)c([N+](=O)[O-])c1OC(=O)OCC [compound 3, carbonic acid 4,5-dibenzoyl-2-ethoxycarbonyloxy-3-nitro-phenyl ester ethy ester, reference compound] | 1180 | – | – |

Second part, led by results:

| IC50 [4] [nM] | Structure (SMILES) | EC50 [1] [nM] | also measured |
| --- | --- | --- | --- |
| 7.8 | CCOC(=O)c1cc(O)c(O)c([N+](=O)[O-])c1C(=O)c1ccccc1 [Compound 1-1, Ethyl 2-benzoyl-4,5-dihydroxy-3-nitrobenzoate] | 262000 | Liver (COMT activity %) 1 hour [2]: 0.6%; Liver (COMT activity %) 5 hours [2]: 9.0%; Brain (COMT activity %) 1 hour [3]: 8.9%; Brain (COMT activity %) 5 hours [3]: 56.2%; Duration [5]: 522.5 min; Total counts [5]: 3188.3 |
| 8.9 | COC(=O)c1cc(O)c(O)c([N+](=O)[O-])c1C(=O)c1ccccc1 [Compound 1-2] | > 300000 | Duration [5]: 452.9 min; Total counts [5]: 3569.0 |
| 8.4 | CCOC(=O)c1cc(O)c(O)c([N+](=O)[O-])c1C(=O)c1cccs1 [Compound 1-13] | > 300000 | Liver (COMT activity %) 1 hour [2]: 6.6%; Liver (COMT activity %) 5 hours [2]: 15.3%; Brain (COMT activity %) 1 hour [3]: 14.8%; Brain (COMT activity %) 5 hours [3]: 61.0%; Duration [5]: 461.4 min; Total counts [5]: 3395.7 |
| 7.1 | CCOC(=O)c1cc(O)c(O)c([N+](=O)[O-])c1C(=O)c1ccno1 [Compound 1-15] | – | – |
| 4.7 | CCOC(=O)c1cc(O)c(O)c([N+](=O)[O-])c1C(=O)c1nccs1 [Compound 1-18] | – | – |
| 9.5 | COC(=O)c1cc(O)c(O)c([N+](=O)[O-])c1C(C)=O [Compound 1-20] | > 300000 | – |
| 8.1 | CCOC(=O)c1cc(O)c(O)c([N+](=O)[O-])c1C(=O)C(F)(F)F [Compound 1-23] | – | – |
